The target in this test is T1, Renin (Rattus norvegicus) (UniProt P08424).
T1 sequence (whole entry): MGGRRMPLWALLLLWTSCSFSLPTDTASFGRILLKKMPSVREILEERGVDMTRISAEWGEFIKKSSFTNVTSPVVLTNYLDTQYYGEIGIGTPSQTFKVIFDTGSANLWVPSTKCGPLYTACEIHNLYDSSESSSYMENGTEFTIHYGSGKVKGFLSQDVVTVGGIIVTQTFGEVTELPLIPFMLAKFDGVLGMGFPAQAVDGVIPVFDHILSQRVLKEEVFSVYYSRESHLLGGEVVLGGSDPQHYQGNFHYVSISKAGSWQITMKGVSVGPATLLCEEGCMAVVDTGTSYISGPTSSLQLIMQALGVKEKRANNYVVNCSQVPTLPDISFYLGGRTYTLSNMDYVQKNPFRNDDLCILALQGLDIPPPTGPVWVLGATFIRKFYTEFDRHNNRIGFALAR
The test is described as follows: Compound was evaluated for its ability to reduce plasma renin activity; Ranges is 20-40. In kind it is functional, cell-free. On the set-up: scale not given: the % may be the effect or the level left.

The results in this text go back to ChEMBL document CHEMBL1121720, “Future directions in dopaminergic nervous system and dopaminergic agonists” (J Med Chem, 1981).

SMILES strings stand for the structures.

On to `CC(C)C[C@H]1C(=O)N2CCCC2[C@]2(C)O[C@](NC(=O)C3C=C4c5cccc6[nH]c(Br)c(c56)C[C@H]4N(C)C3)(C(C)C)C(=O)N12` (stereo partly specified), for which the Activity stood at 20%.
